21 compounds from PubChem BioAssay AID330 (DTP/NCI, 2004) can be followed below.

Where “and” joins values, the source holds several entries; their conditions need not be identical. Identical values can stand only once. Inconclusive results and toxic doses are left out.

The assay relates to P388 leukemia ip, CD2F1 mice, survival T/C. Briefly: NCI In Vivo Anticancer Drug Screen. Data for tumor model P388 Leukemia (intraperitoneal) in CD2F1 (CDF1) mice. The conditions noted are these: endpoint: median survival time, higher = longer survival. Put shortly:
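Mice carrying the transplanted tumor received test compound or vehicle. Survival was recorded in each group, and the value is the treated-group measurement divided by that of the vehicle-treated control group.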

Where [1] appears, read: dose: 50.0 mg/kg/injection, schedule: Q01DX005 (ip), vehicle: saline with Tween-80.
[2] abbreviates: dose: 100.0 mg/kg/injection, schedule: Q01DX005 (ip), vehicle: saline with Tween-80.
Where [3] appears, read: dose: 200.0 mg/kg/injection, schedule: Q01DX005 (ip), vehicle: saline with Tween-80.
Where [4] appears, read: dose: 25.0 mg/kg/injection, schedule: Q04DX003 (ip), vehicle: saline with Tween-80.
Setting [5] is: dose: 50.0 mg/kg/injection, schedule: Q04DX003 (ip), vehicle: saline with Tween-80.
Where [6] appears, read: dose: 50.0 mg/kg/injection, schedule: Q01DX009 (ip), vehicle: saline.
Where [7] appears, read: dose: 100.0 mg/kg/injection, schedule: Q01DX009 (ip), vehicle: saline.
[8] abbreviates: dose: 200.0 mg/kg/injection, schedule: Q01DX009 (ip), vehicle: saline.

`Cc1ccc(S(=O)(=O)OCCOCCOCCOCCOCCOCCOCCOCCOCCOCCOCCOCCOCCOCCOS(=O)(=O)c2ccc(C)cc2)cc1`: the T/C is 101 % of control (dose: 37.5 mg/kg/injection, schedule: Q01DX001 (ip), vehicle: saline with Tween-80); 104 % of control (dose: 75.0 mg/kg/injection, schedule: Q01DX001 (ip), vehicle: saline with Tween-80); 102 % of control (dose: 150.0 mg/kg/injection, schedule: Q01DX001 (ip), vehicle: saline with Tween-80).
`COC(=O)C12C=CC(C(=O)OC)(CC1)n1c(=O)n(-c3ccccc3)c(=O)n12`: the T/C was 107 % of control under setting [1], 100 % of control under setting [2] and 100 % of control under setting [3].
In the case of `Cc1ccc(S(=O)(=O)NC(=O)NC(=S)c2cccc3ccccc23)cc1`, the T/C is 101 % of control (dose: 100.0 mg/kg/injection, schedule: Q01DX001 (ip), vehicle: saline with Tween-80); 99 % of control (dose: 200.0 mg/kg/injection, schedule: Q01DX001 (ip), vehicle: saline with Tween-80); 102 % of control (dose: 400.0 mg/kg/injection, schedule: Q01DX001 (ip), vehicle: saline with Tween-80).
Regarding `Nc1ccn([C@@H](C=O)C[C@@H](C=O)CO)c(=O)n1`, the T/C is 112 % of control (dose: 25.0 mg/kg/injection, schedule: Q01DX005 (ip), vehicle: saline); 150 % of control (dose: 200.0 mg/kg/injection, schedule: Q01DX005 (ip), vehicle: saline); 166 % of control (dose: 400.0 mg/kg/injection, schedule: Q01DX005 (ip), vehicle: saline).
As to `CC(C)CC1C(=O)N2CCCC2C2(O)OC(NC(=O)C3C=C4c5cccc6[nH]cc(c56)CC4N(C)C3)(C(C)C)C(=O)N12` (stereo not drawn), the T/C by setting is: (dose: 2.5 mg/kg/injection, schedule: Q01DX009 (ip), vehicle: Klucel (hydroxypropylcellulose) (HPC)) 91 % of control; (dose: 5.0 mg/kg/injection, schedule: Q01DX009 (ip), vehicle: Klucel (hydroxypropylcellulose) (HPC)) 90 % of control; (dose: 20.0 mg/kg/injection, schedule: Q01DX009 (ip), vehicle: Klucel (hydroxypropylcellulose) (HPC)) 99 % of control; (dose: 40.0 mg/kg/injection, schedule: Q01DX009 (ip), vehicle: Klucel (hydroxypropylcellulose) (HPC)) 101 % of control.
On to `CCCCCCCCCCCCCCCC(=O)OCCCCCCCCCCC`, for which the T/C reads like this: under setting [4], 113 % of control; under setting [5], 95 % of control; (dose: 100.0 mg/kg/injection, schedule: Q04DX003 (ip), vehicle: saline with Tween-80) 90 % of control.
Take `CCCCOc1cc(C(=O)O)ccc1[N+](=O)[O-]`: the T/C was 100 % of control under setting [5] and 104 % of control (dose: 200.0 mg/kg/injection, schedule: Q04DX003 (ip), vehicle: saline with Tween-80).
For `CC(C)(C)C1CCN(Cc2ccccc2)CC1`, the T/C was 103 % of control (dose: 25.0 mg/kg/injection, schedule: Q01DX005 (ip), vehicle: saline with Tween-80); 103 % of control under setting [1]; 100 % of control under setting [2].
Consider `O=C(C[n+]1ccsc1Br)c1ccccc1`, for which the T/C by setting is: under setting [1], 102 % of control; under setting [2], 119 % of control.
In the case of `Fc1ccc(C2SCCCS2)cc1`, the T/C was 92 % of control under setting [6], 92 % of control under setting [7] and 101 % of control under setting [8].
Turning to `O=C(O)C12CCC(c3ccccc31)c1ccccc12`, the T/C by setting is: (dose: 60.0 mg/kg/injection, schedule: Q01DX005 (ip), vehicle: saline with Tween-80) 101 % of control; (dose: 120.0 mg/kg/injection, schedule: Q01DX005 (ip), vehicle: saline with Tween-80) 107 % of control; (dose: 240.0 mg/kg/injection, schedule: Q01DX005 (ip), vehicle: saline with Tween-80) 100 % of control.
Take `OC(CCCN1CCN2CCc3[nH]c4ccccc4c3C2C1)c1ccc(F)cc1` (stereo not drawn): the T/C (dose: 100.0 mg/kg/injection, schedule: Q04DX002 (ip), vehicle: Klucel (hydroxypropylcellulose) (HPC)) is 100 % of control; the T/C (dose: 200.0 mg/kg/injection, schedule: Q04DX002 (ip), vehicle: Klucel (hydroxypropylcellulose) (HPC)) is 95 % of control; the T/C (dose: 400.0 mg/kg/injection, schedule: Q04DX002 (ip), vehicle: Klucel (hydroxypropylcellulose) (HPC)) was 100 % of control.
With `O=C(CNC(=O)Nc1ccc(NC(=O)NCC(=O)Nc2ccc(C3=NCCN3)cc2)cc1)Nc1ccc(C2=NCCN2)cc1`, the T/C reads like this: under setting [6], 105 % of control and 106 % of control; under setting [7], 93 % of control; under setting [8], 111 % of control and 97 % of control.
For the compound `COCCOCCN1CCN(CCCN2c3ccccc3Sc3ccc(C(F)(F)F)cc32)CC1`, the T/C is, setting by setting: (dose: 1.56 mg/kg/injection, schedule: Q04DX003 (ip), vehicle: saline) 95 % of control; (dose: 3.0 mg/kg/injection, schedule: Q04DX003 (ip), vehicle: saline) 104 % of control and 97 % of control; (dose: 3.12 mg/kg/injection, schedule: Q04DX003 (ip), vehicle: saline) 95 % of control; (dose: 6.0 mg/kg/injection, schedule: Q04DX003 (ip), vehicle: saline) 108 % of control; (dose: 6.25 mg/kg/injection, schedule: Q04DX003 (ip), vehicle: saline) 96 % of control; (dose: 12.0 mg/kg/injection, schedule: Q04DX003 (ip), vehicle: saline) 104 % of control and 122 % of control. For the same compound, the T/C (dose: 12.5 mg/kg/injection, schedule: Q04DX003 (ip), vehicle: saline) is 120 % of control and the T/C (dose: 50.0 mg/kg/injection, schedule: Q04DX003 (ip), vehicle: saline) was 124 % of control.
`C=C1C(=O)O[C@H]2CC(C)C3C[C@@H](O)OC(O)[C@]3(C)C[C@@H]12` (stereo partly drawn): the T/C by setting is: (dose: 2.38 mg/kg/injection, schedule: Q01DX005 (ip), vehicle: Klucel (hydroxypropylcellulose) (HPC)) 101 % of control; (dose: 4.75 mg/kg/injection, schedule: Q01DX005 (ip), vehicle: Klucel (hydroxypropylcellulose) (HPC)) 111 % of control; (dose: 9.5 mg/kg/injection, schedule: Q01DX005 (ip), vehicle: Klucel (hydroxypropylcellulose) (HPC)) 102 % of control.
`COc1ccccc1N=C(C)C1C(=O)c2ccccc2C1=O`: the T/C is, setting by setting: (dose: 50.0 mg/kg/injection, schedule: Q01DX005 (ip), vehicle: Klucel (hydroxypropylcellulose) (HPC)) 104 % of control; (dose: 100.0 mg/kg/injection, schedule: Q01DX005 (ip), vehicle: Klucel (hydroxypropylcellulose) (HPC)) 104 % of control; (dose: 200.0 mg/kg/injection, schedule: Q01DX005 (ip), vehicle: Klucel (hydroxypropylcellulose) (HPC)) 100 % of control.
Regarding `O=C(C=C(C(F)(F)F)C(F)(F)F)c1ccc(Cl)c2ccccc12`, the T/C is 113 % of control (dose: 12.5 mg/kg/injection, schedule: Q04DX003 (ip), vehicle: saline with Tween-80) and 118 % of control under setting [4].
For the compound `C/C(=N\O)c1ccccn1`, the T/C reads like this: (dose: 25.0 mg/kg/injection, schedule: Q01DX009 (ip), vehicle: water) 100 % of control; (dose: 50.0 mg/kg/injection, schedule: Q01DX009 (ip), vehicle: water) 98 % of control; (dose: 100.0 mg/kg/injection, schedule: Q01DX009 (ip), vehicle: water) 98 % of control; (dose: 200.0 mg/kg/injection, schedule: Q01DX009 (ip), vehicle: water) 100 % of control; (dose: 400.0 mg/kg/injection, schedule: Q01DX009 (ip), vehicle: water) 106 % of control.
For `CCN(CC)CC[n+]1ccc2c(C)c3[nH]c4ccccc4c3c(C)c2c1`, the T/C by setting is: (dose: 0.63 mg/kg/injection, schedule: Q04DX002 (ip), vehicle: water) 110 % of control; (dose: 0.78 mg/kg/injection, schedule: Q04DX003 (ip), vehicle: water) 106 % of control; (dose: 1.25 mg/kg/injection, schedule: Q04DX002 (ip), vehicle: water) 115 % of control; (dose: 1.56 mg/kg/injection, schedule: Q04DX003 (ip), vehicle: water) 107 % of control and 120 % of control; (dose: 2.5 mg/kg/injection, schedule: Q04DX002 (ip), vehicle: water) 122 % of control; (dose: 3.12 mg/kg/injection, schedule: Q04DX003 (ip), vehicle: water) 123 % of control. Besides, the T/C (dose: 6.25 mg/kg/injection, schedule: Q04DX003 (ip), vehicle: water) was 124 % of control and the T/C (dose: 12.5 mg/kg/injection, schedule: Q04DX003 (ip), vehicle: water) is 124 % of control.
Consider `O=C(C(c1ccccc1)c1ccccc1)N1CCCCC1c1ccccc1` (stereo not drawn), for which the T/C under setting [1] was 102 % of control, the T/C under setting [2] is 92 % of control and the T/C under setting [3] is 97 % of control.
Consider `CC1=Nc2ccccc2NC(C)(C)C1`, for which the T/C under setting [6] was 103 % of control, the T/C under setting [7] was 100 % of control and the T/C under setting [8] was 100 % of control.
